The values below come from patent publication US10927086B2, “Substituted sulfoximine compounds as indoleamine 2,3-dioxygenase (IDO) inhibitors” (Merck Sharp & Dohme Corp., priority 2017, dated 2021).

Each structure is given as a SMILES string.

Experiment [1] has as its target T1, IDO1 (Homo sapiens (Human), UniProt P14902). The experiment can be described thus: IDO1 Enzyme Assay. It is filed as biochemical. Particulars: HIS-tagged recombinant IDO1, fluorescence readout. The procedure:
Compounds to be tested were serially diluted in ten 3-fold steps in DMSO starting from 10 mM DMSO stocks. Compound dilutions or DMSO alone were then dispensed from the dilution plate into a Greiner black 384-well assay plate (catalog #781086) using an Echo 555 acoustic liquid handler (Labcyte).
HIS-tagged IDO1 protein was recombinantly expressed in Escherichia coli using ZYP5052 autoinduction media supplemented with 500 μM delta aminolevulinic acid for 48 h at 16° C. IDO1 protein was purified using Ni^2+-affinity resin and size exclusion chromatography. Purified protein was then diluted in assay buffer (50 mM Tris pH 7.0, 1% glycerol, 20 μM methylene blue, 0.05% Tween-20, 20 mM sodium ascorbate, 100 units/mL catalase to obtain a final IDO1 concentration of 40 nM. IDO1 solution […] or buffer alone ([…]) were dispensed to wells of the assay plate using a BioRAPTR liquid dispenser (Beckman Coulter). Assay plates containing compound and IDO1 enzyme were incubated at RT for 30 min. Afterwards, 10 μL of 400 μM tryptophan in assay buffer were added to each well of the assay plate using a BioRAPTR liquid dispenser. Plates were incubated at RT for 60 min and reactions were quenched by addition of 10 μL of 0.5 M methyl isonipecotate in dimethyl sulfoxide. Plates were sealed and incubated at 37° C. for 4 h or 50° C. for 2 h. The plates are allowed to cool and then centrifuged for 1 min at 1000×g. The resulting fluoresence was measured in an Envision plate reader (Perkin Elmer) with a 400/25 nm excitation filter and an 510/20 nm emission filter.
Potencies were calculated by linear least squares fit to the four parameter logistic IC50 equation.
Target sequence in this assay (P14902 whole entry, species assumed): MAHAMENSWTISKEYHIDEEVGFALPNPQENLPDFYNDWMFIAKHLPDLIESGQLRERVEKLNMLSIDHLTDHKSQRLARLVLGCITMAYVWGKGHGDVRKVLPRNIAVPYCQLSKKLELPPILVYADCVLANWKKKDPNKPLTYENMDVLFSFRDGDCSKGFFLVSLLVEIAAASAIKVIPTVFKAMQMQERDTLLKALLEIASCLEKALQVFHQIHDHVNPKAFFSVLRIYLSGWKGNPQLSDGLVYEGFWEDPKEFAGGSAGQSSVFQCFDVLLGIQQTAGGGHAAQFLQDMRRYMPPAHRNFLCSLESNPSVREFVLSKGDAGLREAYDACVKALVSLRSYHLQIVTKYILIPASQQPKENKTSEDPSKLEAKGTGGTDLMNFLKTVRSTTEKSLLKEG

Experiment [2] concerns the target T1, IDO1. The experiment can be described thus: IDO1 Cellular Assay in Hela Cells Stimulated with IFNγ. It is filed as cell-based. The conditions noted are these: about 48 hours, read-out: IDO1 HELA Cell Assay, IC50. How it is done: Hela cells were cultured in complete Hela culture medium (90% EMEM, 10% heat-inactivated fetal bovine serum) and expanded to about 1×10^9 cells. The cells were then collected and frozen down at 10×10^6 cells/vial in 1 mL frozen medium (90% complete Hela culture medium, 10% DMSO)
Compounds to be tested were serially diluted in ten 3-fold steps in DMSO starting from 10 mM DMSO stocks in Echo low volume plate(s). Compound dilutions or DMSO alone were then dispensed from the dilution plate(s) into Greiner black 384-well assay plate(s) (catalog #781086, 50 nL/well) using an Echo 550 acoustic liquid handler (Labcyte).
Frozen Hela cells were thawed and transferred into Hela assay medium (99% complete Hela culture medium, 1% Pen/Strep) with 20 mL medium/vial of cells. The cells were spun down at 250 g in a table top centrifuge for 5 min and suspended in same volume of Hela assay medium. The cells were then counted and adjusted to a density of 2×10^5 cells/ml in Hela assay medium. Sterile L-tryptophan were added to the cells with final concentration of 300 uM L-tryptophan. A small aliquot (2 mL/plate) of Hela cells were set aside and were not treated with IFNγ, to serve as the Max-E control. The rest of Hela cells were added with sterile IFNγ (Cat #285-IF, R & D systems) with a final concentration of 100 ng/mL.
Hela cells with and without IFNγ were dispensed to the respective wells of 384-well assay plates containing the compounds. The plates were incubated for about 48 hours at a 37° C., 5% CO2 incubator. Afterwards, 12 μL of 0.5 M methyl isonipecotate in dimethyl sulfoxide were added into each well and the plates were sealed and incubated at 37° C. without CO2 overnight. The plates were centrifuged for 1 min at 200×g. The resulting fluorescence was measured in a Spectramax plate reader (Molecular Devices) with a 400 nm excitation filter and a 510 nm emission filter.
The fluorescence intensity of each well was corrected for the background observed in wells with non-IFNγ-treated cells and was expressed as a fraction of the intensity observed in wells of IFNγ-treated cells and DMSO only. Potencies were calculated by linear least squares fit to the four parameter logistic IC50 equation.
Target sequence in this assay (P14902 whole entry): as the sequence (P14902 whole entry, species assumed) above

By IC50 is commonly meant the concentration needed to halve the response being measured. For `CS(=N)(=O)C1CC2(CC(Nc3nonc3/C(=N\O)N[C@@H]3Cc4ccc(F)cc43)C2)C1` (single isomer, unassigned) [Example 75], the values for the IC50 on IDO1 [1] and on IDO1 [2] were 90.4 nM and 40.3 nM, respectively.

Regarding `CS(=O)(CCNc1nonc1/C(=N\O)N[C@H]1Cc2ccc(F)cc21)=NCCO` (single isomer, unassigned) [Example 57], the 50% inhibitory concentration (IC50) on IDO1 [1] was 70.6 nM; on IDO1 [2], 109 nM.

Turning to `N=S(=O)(CCNc1nonc1/C(=N\O)N[C@@H]1Cc2ccc(F)cc21)C1CC1` (single isomer, unassigned) [Example 69], the IC50 on IDO1 [1] was determined as 64.6 nM; at IDO1 [2], 48.5 nM.

With `CC(O)CS(=N)(=O)CCNc1nonc1/C(=N\O)N[C@@H]1Cc2ccc(F)cc21` (single isomer, unassigned) [Example 87], the figures for the 50% inhibitory concentration (IC50) at IDO1 [1] and on IDO1 [2] were 46.1 nM and 51.9 nM, respectively.

Take `CS(=N)(=O)N1CCO[C@@H](CNc2nonc2/C(=N\O)N[C@H]2Cc3ccc(F)cc32)C1` (single isomer, unassigned) [Example 60]: the figures for the half-maximal inhibitory concentration (IC50) at IDO1 [1] and at IDO1 [2] were 234 nM and 329 nM, respectively.

Take `CS(=N)(=O)CCCCNc1nonc1/C(=N/O)N[C@H]1Cc2ccc(F)cc21` (single isomer, unassigned) [Example 38]: the IC50 on IDO1 [1] came to 47.2 nM; on IDO1 [2] it was 26.7 nM.

As to `CS(=N)(=O)N1CC2(CC(Nc3nonc3/C(=N\O)N[C@@H]3Cc4ccc(F)cc43)C2)C1` (single isomer, unassigned) [Example 76], the IC50 at IDO1 [1] was found to be 39.9 nM; on IDO1 [2], 17.6 nM.

Regarding `C[S@](=N)(=O)C1CC(Nc2nonc2/C(=N\O)N[C@@H]2Cc3ccc(F)cc32)C1` (single isomer, unassigned) [Example 73], the figures for the half-maximal inhibitory concentration (IC50) at IDO1 [1] and on IDO1 [2] were 63.9 nM and 85.4 nM, respectively.

Regarding `CC(O)CS(=N)(=O)CCNc1nonc1/C(=N\O)N[C@@H]1Cc2ccc(F)cc21` (single isomer, unassigned) [Example 86], the IC50 was 47.4 nM at IDO1 [1] and 40.5 nM on IDO1 [2].

Turning to `C[S@@](=N)(=O)CCCOc1nonc1/C(=N/O)NC1Cc2ccc(F)cc21` (single isomer, unassigned) [Example 30], the IC50 at IDO1 [1] stood at 231 nM; at IDO1 [2], 384 nM.

Turning to `CON=[S@](C)(=O)CCNc1nonc1/C(=N/O)NC1Cc2ccc(F)cc21` (single isomer, unassigned) [Example 91], the IC50 came to 47.2 nM on IDO1 [1] and 41.8 nM on IDO1 [2].

Turning to `CS(=N)(=O)N1CC(CNc2nonc2/C(=N\O)N[C@@H]2Cc3ccc(F)cc32)C1` (single isomer, unassigned) [Example 71], the results for the IC50 on IDO1 [1] and on IDO1 [2] were 80 nM and 72.3 nM, respectively.

For the compound `N=S1(=O)CCC1CNc1nonc1/C(=N/O)N[C@H]1Cc2ccc(F)cc21` (single isomer, unassigned) [Example 22], the IC50 came out at 137 nM at IDO1 [1] and 81.5 nM at IDO1 [2].

As to `CS(=N)(=O)CCOCCNc1nonc1/C(=N/O)N[C@H]1Cc2ccc(F)cc21` (single isomer, unassigned) [Example 47], the IC50 stood at 154 nM at IDO1 [1] and 196 nM on IDO1 [2].

Regarding `N=S1(=O)CCC1CNc1nonc1/C(=N/O)N[C@H]1Cc2ccc(F)cc21` (single isomer, unassigned) [Example 23], the values for the 50% inhibitory concentration (IC50) on IDO1 [1] and on IDO1 [2] were 143 nM and 99.4 nM, respectively.

With `CN=S(C)(=O)CCNc1nonc1/C(=N/O)N[C@H]1Cc2ccc(F)cc21` (single isomer, unassigned) [Example 35], the half-maximal inhibitory concentration (IC50) on IDO1 [1] was determined as 81.6 nM; at IDO1 [2], 43.2 nM.

Turning to `CS(=N)(=O)NCC(O)CNc1nonc1/C(=N\O)N[C@H]1Cc2ccc(F)cc21` (single isomer, unassigned) [Example 55], the IC50 on IDO1 [1] amounted to 92.9 nM; on IDO1 [2], 117 nM.

For `CS(=N)(=O)CC(O)CNc1nonc1/C(=N/O)N[C@H]1Cc2ccc(F)cc21` (single isomer, unassigned) [Example 26], the 50% inhibitory concentration (IC50) on IDO1 [1] is 53.7 nM; on IDO1 [2] it was 99.9 nM.

Turning to `CS(=N)(=O)CC(=O)N1CC(Oc2nonc2/C(=N/O)N[C@H]2Cc3ccc(F)cc32)C1` (single isomer, unassigned) [Example 49], the half-maximal inhibitory concentration (IC50) came out at 112 nM on IDO1 [1] and 99.5 nM at IDO1 [2].

Turning to `CS(=N)(=O)N1CCC(Nc2nonc2/C(=N/O)N[C@H]2Cc3ccc(F)cc32)C1` (single isomer, unassigned) [Example 43], the IC50 on IDO1 [1] was found to be 169 nM; on IDO1 [2] it was 157 nM.

As to `CS(=N)(=O)CC(O)CNc1nonc1/C(=N/O)N[C@H]1Cc2ccc(F)cc21` (single isomer, unassigned) [Example 29], the IC50 on IDO1 [1] turned out to be 70.4 nM; on IDO1 [2], 123 nM.

Regarding `CS(=N)(=O)CC12CC(Nc3nonc3/C(=N\O)N[C@@H]3Cc4ccc(F)cc43)(C1)C2` (single isomer, unassigned) [Example 82], the IC50 on IDO1 [1] is 91.7 nM; on IDO1 [2], 82 nM.

In the case of `CS(=N)(=O)CCCCNc1nonc1/C(=N/O)N[C@H]1Cc2ccc(F)cc21` (single isomer, unassigned) [Example 39], the IC50 on IDO1 [1] stood at 50.8 nM; on IDO1 [2], 35.7 nM.

For the compound `CS(=N)(=O)NCCNc1nonc1/C(=N/O)N[C@H]1Cc2ccc(F)cc21` (stereo partly drawn) [Example 11, N—((S)-4-fluorobicyclo[4.2.0]octa-1(6),2,4-trien-7-yl)-N′-hydroxy-4-((2-(methylsulfonoamidimidamido)ethyl)amino)-1,2,5-oxadiazole-3-carboximidamide], the half-maximal inhibitory concentration (IC50) on IDO1 [1] amounted to 38.7 nM; on IDO1 [2], 27.4 nM.

Regarding `CS(=N)(=O)CCC(O)CNc1nonc1/C(=N\O)N[C@@H]1Cc2ccc(F)cc21` (single isomer, unassigned) [Example 81], the results for the IC50 on IDO1 [1] and at IDO1 [2] were 95 nM and 62.8 nM, respectively.

With `CN=S(C)(=O)CCNc1nonc1/C(=N/O)N[C@H]1Cc2ccc(F)cc21` (single isomer, unassigned) [Example 34], the IC50 on IDO1 [1] is 59.8 nM; on IDO1 [2], 77 nM.

As for `CS(=N)(=O)CCC(O)CNc1nonc1/C(=N\O)N[C@@H]1Cc2ccc(F)cc21` (single isomer, unassigned) [Example 80], the IC50 was found to be 94.5 nM on IDO1 [1] and 68.5 nM at IDO1 [2].

On to `CS(=N)(=O)N1CC(Oc2nonc2/C(=N/O)N[C@H]2Cc3ccc(F)cc32)C1` (single isomer, unassigned) [Example 42], for which the IC50 came out at 56.8 nM at IDO1 [1] and 43.6 nM on IDO1 [2].

With `CS(=N)(=O)NCCOc1nonc1/C(=N/O)N[C@H]1Cc2ccc(F)cc21` (single isomer, unassigned) [Example 52], the IC50 worked out at 175 nM at IDO1 [1] and 148 nM at IDO1 [2].

Turning to `CS(=N)(=O)CCNC(=O)CNc1nonc1/C(=N/O)N[C@H]1Cc2ccc(F)cc21` (single isomer, unassigned) [Example 14], the half-maximal inhibitory concentration (IC50) on IDO1 [1] is 63.8 nM; on IDO1 [2] it was 103 nM.

`CS(=N)(=O)CCNC(=O)CNc1nonc1/C(=N/O)N[C@H]1Cc2ccc(F)cc21` (stereo partly drawn) [Example 12, 2-((4-(N-((S)-4-fluorobicyclo[4.2.0]octa-1(6),2,4-trien-7-yl)-N′-hydroxycarbamimidoyl)-1,2,5-oxadiazol-3-yl)amino)-N-(2-(S-methylsulfonimidoyl)ethyl)acetamide]: the IC50 was found to be 49.3 nM on IDO1 [1] and 114 nM on IDO1 [2].

Turning to `N=S(=O)(CCO)CCNc1nonc1/C(=N/O)N[C@H]1Cc2ccc(F)cc21` (single isomer, unassigned) [Example 8], the half-inhibitory concentration (IC50) at IDO1 [1] is 43.5 nM; on IDO1 [2], 30.5 nM.

As to `CS(=N)(=O)N1CCO[C@@H](CNc2nonc2/C(=N\O)N[C@H]2Cc3ccc(F)cc32)C1` (single isomer, unassigned) [Example 59], the IC50 at IDO1 [1] was 120 nM; at IDO1 [2], 129 nM.
